Square brackets hold non-standard residues; d marks the D form. Peptide text beside a SMILES is read from it. ξ: configuration not given here. ξGly(decyl) = CCCCCCCCCCC(N)C(=O)O
How the values were obtained:
[1] = In vitro metabolic stability in plasma; format: in vitro ADME; conditions: male CD-1 mouse plasma, 10 µM test compound, n = 3, ± SD; for half-life: mouse, plasma, read-out: t1/2 in Plasma
Method: (§1) Metabolic stability studies were carried out as reported before using freshly made brain homogenate (20% w/v) and plasma at 37 °C, in triplicate. For obtaining brain homogenates, a Bead Bug microtube homogenizer (Benchmark Scientific, Edison, NJ, USA) was used. For obtaining plasma, blood was collected in BD Vacutainer® Sodium Heparin tubes (Becton, Dickinson and Co., Franklin Lakes, NJ, USA) followed by centrifugation. Each biological matrix was spiked with compound (1) or TRH to create 10 µM solutions. KYP-2047, a POP inhibitor, was used in selected experiments at 50 µM concentration. Sample aliquots (100 µL) of TRH-containing matrices were removed after 2, 4, 6, 8, 10, 15, and 30 min, while sample aliquots (100 µL) of prodrug-containing matrices were obtained at 5, 10, 20, 30, 40, 60, 90, 120, and 210 min. Sample aliquots were added to 200 µL of acetic acid solution (20% v/v) in acetonitrile, thoroughly vortexed and, then, centrifuged before LC–MS/MS analysis. For LC separation, a Kinetex-C8 column (10 cm × 4.6 mm i.d., dp = 2.6 µm; Phenomenex; Torrance, CA, USA) with the eluent mixed from (A) H2O with 0.1% (v/v) formic acid and (B) acetonitrile with 0.1% (v/v) formic acid, flow rate of 400 µL/min, and gradient elution by a 10-min linear program from 0% B to 90% B were employed. Half-life (t1/2) values were calculated by assuming pseudo-first-order degradation.

[2] = In vitro metabolic stability in brain homogenate; format: in vitro ADME; conditions: mouse, male CD-1 mouse brain homogenate, 10 µM test compound
Method: as §1

[3] = 37 °C, n = 3, ± SD, read-out: t1/2 in 20% (w/v) Brain Homogenate

CCCCCCCCCCC(N)C(=O)NC(CCCCCCCCCC)C(=O)N1CCC[C@H]1C(=O)N1CCC[C@H]1C(=O)N[C@@H](CCC(N)=O)C(=O)N[C@@H](Cc1c[nH]cn1)C(=O)N1CCC[C@H]1C(N)=O (stereo partly drawn) [(1), C12-C12-Pro-Pro-Gln-His-Pro-NH2] (H-[ξGly(decyl)][ξGly(decyl)]PPQHP-NH2)
half-life ([1]; 37 °C): 1.67 ± 0.117 h
half-life ([1]; with POP inhibitor KYP-2047 at 50 µM): 1.92 ± 0.217 h
t1/2 in Plasma ([1]; with POP inhibitor KYP-2047 at 50 µM, listed as prodrug): did not change
half-life [2, 3]: 0.783 ± 0.1 h
half-life ([2]; with POP inhibitor KYP-2047 at 50 µM, n = 3, read-out: t1/2 in 20% (w/v) Brain Homogenate): > 24 h

NC(=O)[C@@H]1CCCN1C(=O)[C@H](Cc1cnc[nH]1)NC(=O)[C@@H]1CCC(=O)N1 [TRH, pGlu-His-Pro-NH2, reference compound]
half-life ([1]; 37 °C): ~0.117 h
half-life [2, 3]: < 0.0833 h

Reference: publication PMC6680701, “Brain Delivery of Thyrotropin-Releasing Hormone via a Novel Prodrug Approach” (Pharmaceutics, 2019)
